IC50, Ki and solubility data for eight molecules are collected here from patent US10077289B2, “Cyclosporins modified on the MeBmt sidechain by heterocyclic rings” (priority 2015, dated 2018).

Data set [1] has as its target calcineurin/cyclophilin A (Homo sapiens (Human), UniProt P62937+P63098+Q08209). Briefly: Calcineurin Phosphatase (CaN) Assay (+CypA). It counts as biochemical. An excerpt: Calcineurin Phosphatase (CaN) Assay
The calcineurin phosphatase assay is a means for estimating the immunosuppressive potential of a test compound. Calcineurin is a serine-threonine protein phosphatase that on activation dephosphorylates members of the nuclear factor of activated T cells (NFAT), which are important in T lymphocyte activation.
To investigate the immunosuppressive potential of exemplary compounds of Formula I, which are cyclosporin analogs, their ability to inhibit calcineurin activity was measured in the presence and absence of Cyp A.
The CaN assay kit used is based on a colorimetric assay for measuring calcineurin phosphatase activity, and it is commercially available (Enzo Life Sciences and Calbiochem). Calmodulin is also required for calcineurin activity and RII phosphopeptide is used as an efficient peptide substrate for calcineurin. […] The detection of free phosphate released is based on the classic Malachite green assay.
Enzo Life Sciences CaN Assay Kit: BML-AK804
Malachite Green: BIOMOL Green™ reagent
Calmodulin (Human, recombinant): was thawed on ice, diluted 1:50 with 2× assay buffer, and then stored on ice.
Calcineurin: was thawed quickly, stored on ice immediately, diluted 1:12.5 with 1× assay buffer, and then stored on ice.
R-II Substrate: 915 μL ultrapure water (UPW) was added to the 1.5 mg vial substrate to give a final concentration of 0.75 mM.
Inhibitors: 2.5 mM inhibitor in 100% DMSO.
Cyp A: recombinant human CypA (Sigma C3805), 1 mg/ml; Recombinant 6-His tagged CypA prepared by the University of Edinburgh was also used.
Inhibitor dilutions: inhibitor compounds were diluted in UPW in polypropylene low-binding 96 well plates at 5× the final assay concentration.
Assay Setup: using the half area 96 well plates supplied with the kit, 10 μl UPW was added to duplicate wells to provide the non-inhibited control. 10 μl of the inhibitor or the inhibitor/Cyp A complex was added to the appropriate sample wells. 25 μl of the 2× assay buffer with CaM was added to all wells, then 5 μl of CaN was added to all wells (40 U per well final concentration) except duplicate ‘no calcineurin blank’ wells to which 5 μL 1× assay buffer was added. The assay plate was placed in an oven at 30° C. for 15 minutes to equilibrate to the reaction temperature. The reaction was started by the addition of 10 μl RII-peptide (0.15 mM final concentration). The reaction was allowed to proceed at 30° C. for a time period in which the reaction is linear for about 60 minutes. The reaction was then terminated by adding 100 μl of the Malachite Green reagent. The color was allowed to develop for 15-30 minutes at room temperature before the absorbance at 620 nm was measured using a plate reader (Molecular Devices—SpectraMax M5). The data were analyzed by subtracting ‘no Calcineurin blank’ from all the absorbance readings and plotting the background corrected absorbances against Log10 inhibitor concentration. A sigmoidal-dose response curve was fitted to the data using GraphPad Prism Software.
It exerts its immunosuppressive activity by binding to cyclophilin A to form a complex, which then binds to calcineurin and thereby inhibits calcineurin activity.

Data set [2] has as its target Human recombinant cyclophilin A (Cyp A) (Homo sapiens (Human), UniProt P62937). Description: Protease-free PPIase assay. How it is done:
Protease-Free PPIase Assay
The protease-free PPIase assay measures the rate of cis to trans conversion of a peptide substrate catalyzed by the enzyme cyclophilin A. Addition of a cyclophilin A inhibitor (e.g., a test compound) slows the catalyzed rate and a Ki value is obtained.
35 mM HEPES pH 7.8, filtered through a 0.2 μm filter. 50 μM DTT was added prior to use each day and then the buffer was stored on ice.
Human recombinant cyclophilin A (Cyp A) (Sigma C3805) enzyme was diluted to 1 μM with enzyme dilution buffer (20 mM HEPES pH 7.8, 40% glycerol, 50 μM DTT and 1 μM BSA) and stored at −20° C.
Succinimide-Ala-Ala-Pro-Phe-p-nitroanilide (SUC-AAPF-pNA) (from Bachem AG, L-1400), 20 mg/ml prepared in 0.5 M LiCl in trifluoroethanol.
The temperature is monitored by the use of a temperature probe. To prevent UV degradation of test compounds, the light below 290 nm was blocked using a glass slide in the light path. 1.5 ml of the assay buffer was put into a 3 ml quartz cuvette and cooled to 10.0±0.1° C. while stirring (vigorous but not so fast as to produce cavitation). The inhibitor was diluted in 100% DMSO, and then added to the assay to a maximum final concentration of 0.5% DMSO in the assay. A blank spectrum was obtained, then 3 μL of enzyme was added (2 nM final concentration) and then 3 μL substrate (60 μM final concentration) added. The absorbance was measured at 330 nm for 300 s or 500 s for blank runs (NOTE: the substrate must be added in one quick injection and the measurements started immediately to minimize mixing errors).
A first order rate equation was fitted to the absorbance data, for each concentration of inhibitor, to obtain the rate constant (the first 10 to 15 seconds were excluded as mixing causes errors in this portion of curve). The catalytic rate was calculated from the enzymatic rate constant minus the background rate constant. An exponential curve was generated using the catalytic rate constants versus the inhibitor concentration to obtain the Ki value for the inhibitor. The Ki value is indicative of the binding affinity between the test compound and cyclophilin A.

Data set [3] is described as follows: Water Solubility Assay (measured in pH 7.8 buffer). Format: physicochemical. Particulars: 25 °C, kinetic from dmso stock. How it is done: Water Solubility Assay (Measured in pH 7.8 Buffer)
The aqueous solubility of a compound of Formula I in buffer (pH 7.8) was measured by recording the onset of precipitation of the compound as a function of increasing concentration. The onset of precipitation, if it occurred, was detected by an increase in absorbance at 650 nm.
Assay Buffer: 35 mM HEPES pH 7.8
Stock solutions of Control and Test Compounds: 10 mM in 100% DMSO.
10 mM stock solutions of control and test compounds were prepared in 100% DMSO.
Assay buffer (247.5 μl) was placed into flat bottomed transparent 96-well plate. For blank samples DMSO (2.5 μl) was added. For test and control samples 2.5 μl of the appropriate DMSO dilution stocks were added to the appropriate well. All test and control compounds were performed in triplicate.
The plates were sealed with adhesive plate seal and shaken at 250 rpm at 25° C. for 18 h on a plate shaker. After incubation the plate seals were taken off and any bubbles observed in wells removed. The plates were read on a SpectraMaxM5 with a 5 s pre-shake at 650 nm. Data files were transferred to the appropriate worksheet and the solubility range of the compounds was calculated from the data. The values shown in the Tables indicate the concentration in μM (micromolar) at which the compound remains in solution.

Setting [4] is: in the presence of Cyp A, 1:1 complex with inhibitor, read-out: Calcineurin Phosphatase (CaN) Assay (+CypA) IC50.
The mark [5] stands for this setting: read-out: Protease-free PPIase Assay Ki, human recombinant Cyp A, 10 °C.
Where [6] appears, read: 35 mM HEPES buffer pH 7.8, aqueous buffer, 35 mM HEPES pH 7.8, 1% DMSO, 18 h, read-out: Water Solubility Assay, concentration at which the compound remains in solution.

The structures appear in SMILES notation. Converted amounts (≈) assume the structure as drawn. Read-outs that look alike come from different tables or passages of the source.

As to `CC[C@H]1NC(=O)[C@@H]([C@H](O)[C@H](C)Cc2nccn2C)N(C)C(=O)[C@@H](C(C)C)N(C)C(=O)[C@@H](CC(C)C)N(C)C(=O)[C@@H](CC(C)C)N(C)C(=O)[C@H](C)NC(=O)[C@@H](C)NC(=O)[C@@H](CC(C)C)N(C)C(=O)[C@@H](C(C)C)NC(=O)[C@H](CC(C)C)N(C)C(=O)[C@@H](C)N(C)C1=O` [Compound 1, [(2S,3R,4R)-3-Hydroxy-4-methyl-2-(methylamino)-5-(1-methyl-1H-imidazol-2-yl)-pentanoic acid]^1 [(R)-methyl-Sar]^3 cyclosporin A], the IC50 (usually the concentration that inhibits the measured activity by half) in data set [1] (setting [4]) is 2700 nM. The Ki (commonly a dissociation constant, usually derived from enzyme kinetics or from competition with a known ligand) in data set [2] turned out to be 15 nM. In data set [3] (pH 7.8, aqueous buffer), this molecule came in with a solubility at 18 h of 75 to 100 µM (≈ 94.3 to 126 µg/mL).
Consider `CC[C@H]1NC(=O)[C@@H]([C@H](O)[C@H](C)Cc2nccn2CCN2CCOCC2)N(C)C(=O)[C@@H](C(C)C)N(C)C(=O)[C@@H](CC(C)C)N(C)C(=O)[C@@H](CC(C)C)N(C)C(=O)[C@H](C)NC(=O)[C@@H](C)NC(=O)[C@@H](CC(C)C)N(C)C(=O)[C@@H](C(C)C)NC(=O)[C@H](CC(C)C)N(C)C(=O)[C@@H](C)N(C)C1=O` [Compound 2, [(2S,3R,4R)-3-Hydroxy-4-methyl-2-(methylamino)-5-(1-(N-morpholino-ethyl)-1H-imidazol-2-yl)-pentanoic acid]^1 [(R)-methyl-Sar]^3 cyclosporin A], for which the IC50 in data set [1] was above 10000 nM. Besides, the Ki in data set [2] (setting [5]) worked out at 4.6 nM. The solubility at 18 h in data set [3] (setting [6]) is above 100 µM.
`CC[C@H]1NC(=O)[C@@H]([C@H](O)[C@H](C)Cc2nccn2CCN2CCCC2)N(C)C(=O)[C@@H](C(C)C)N(C)C(=O)[C@@H](CC(C)C)N(C)C(=O)[C@@H](CC(C)C)N(C)C(=O)[C@H](C)NC(=O)[C@@H](C)NC(=O)[C@@H](CC(C)C)N(C)C(=O)[C@@H](C(C)C)NC(=O)[C@H](CC(C)C)N(C)C(=O)[C@@H](C)N(C)C1=O` [Compound 3, [(2S,3R,4R)-3-Hydroxy-4-methyl-2-(methylamino)-5-(1-(N-pyrrolidinyl-ethyl)-1H-imidazol-2-yl)pentanoic acid]^1 [(R)-methyl-Sar]^3 cyclosporin A]: in data set [1] (setting [4]), the concentration for half-maximal inhibition (IC50) is above 10000 nM. Also, the Ki in data set [2] (setting [5]) was 8.6 nM. In data set [3] (setting [6]), the solubility at 18 h is above 100 µM.
As for `CC[C@H]1NC(=O)[C@@H]([C@H](O)[C@H](C)Cc2nccn2CCC(F)(F)F)N(C)C(=O)[C@@H](C(C)C)N(C)C(=O)[C@@H](CC(C)C)N(C)C(=O)[C@@H](CC(C)C)N(C)C(=O)[C@H](C)NC(=O)[C@@H](C)NC(=O)[C@@H](CC(C)C)N(C)C(=O)[C@@H](C(C)C)NC(=O)[C@H](CC(C)C)N(C)C(=O)[C@@H](C)N(C)C1=O` [Compound 8, [(2S,3R,4R)-3-Hydroxy-4-methyl-2-(methylamino)-5-[3-(3,3,3-trifluoro-propyl)-3H-imidazol-2-yl]-pentanoic acid]^1 [(R)-methyl-Sar]^3 cyclosporin A], the IC50 in data set [1] (setting [4]) is above 10000 nM. The Ki in data set [2] (setting [5]) came out at 7.4 nM.
Turning to `CC[C@H]1NC(=O)[C@@H]([C@H](O)[C@H](C)Cc2nc3ccccc3[nH]2)N(C)C(=O)[C@@H](C(C)C)N(C)C(=O)[C@@H](CC(C)C)N(C)C(=O)[C@@H](CC(C)C)N(C)C(=O)[C@H](C)NC(=O)[C@@H](C)NC(=O)[C@@H](CC(C)C)N(C)C(=O)[C@@H](C(C)C)NC(=O)[C@H](CC(C)C)N(C)C(=O)CN(C)C1=O` [Compound 10, [(2S,3R,4R)-1-(1H-Benzimidazol-2-yl)-3-hydroxy-4-methyl-2-(methylamino)pentanoic acid]^1 cyclosporin A], the solubility at 18 h in data set [3] (pH 7.8, aqueous buffer) fell in the range of 25 to 50 µM (≈ 32 to 63.9 µg/mL).
On to `CC[C@H]1NC(=O)[C@@H]([C@H](O)[C@H](C)CCCc2ccc(F)cn2)N(C)C(=O)[C@@H](C(C)C)N(C)C(=O)[C@@H](CC(C)C)N(C)C(=O)[C@@H](CC(C)C)N(C)C(=O)[C@H](C)NC(=O)[C@@H](C)NC(=O)[C@@H](CC(C)C)N(C)C(=O)[C@@H](C(C)C)NC(=O)[C@H](CC(C)C)N(C)C(=O)[C@@H](C)N(C)C1=O` [Compound 14, [(2S,3R,4R)-7-(5-Fluoro-pyridin-2-yl)-3-hydroxy-4-methyl-2-(methylamino)-heptanoic acid]^1 [(R)-methyl-Sar]^3 cyclosporin A], for which the IC50 in data set [1] (setting [4]) came to 8750 nM. In addition, the Ki in data set [2] was 1.5 nM.
Regarding `CC[C@H]1NC(=O)[C@@H]([C@H](O)[C@H](C)CCCc2cn3c(n2)CCCC3)N(C)C(=O)[C@@H](C(C)C)N(C)C(=O)[C@@H](CC(C)C)N(C)C(=O)[C@@H](CC(C)C)N(C)C(=O)[C@H](C)NC(=O)[C@@H](C)NC(=O)[C@@H](CC(C)C)N(C)C(=O)[C@@H](C(C)C)NC(=O)[C@H](CC(C)C)N(C)C(=O)[C@@H](C)N(C)C1=O` [Compound 19], the IC50 in data set [1] is above 10000 nM. Besides, in data set [2] (setting [5]), the Ki stood at 5.4 nM.
With `CC[C@H]1NC(=O)[C@@H]([C@H](O)[C@H](C)CCCc2ncco2)N(C)C(=O)[C@@H](C(C)C)N(C)C(=O)[C@@H](CC(C)C)N(C)C(=O)[C@@H](CC(C)C)N(C)C(=O)[C@H](C)NC(=O)[C@@H](C)NC(=O)[C@@H](CC(C)C)N(C)C(=O)[C@@H](C(C)C)NC(=O)[C@H](CC(C)C)N(C)C(=O)[C@@H](C)N(C)C1=O` [Compound 24], the solubility at 18 h in data set [3] (pH 7.8, aqueous buffer) was above 100 µM.
